From the NIST ThermoML archive (doi:10.1016/j.jct.2017.04.007)

Conditions: Liquid; for speed of sound: Frequency=3 MHz, Pulse-echo method; for mass density: Vibrating tube method

CCOC(F)(C(F)(F)C(F)(F)C(F)(F)F)C(F)(C(F)(F)F)C(F)(F)F (stereo not drawn) [2-trifluoromethyl-3-ethoxydodecafluorohexane]
Conditions | mass density, 293.15 K [kg/m3] | mass density, 303.15 K [kg/m3] | mass density, 313.15 K [kg/m3] | mass density, 323.15 K [kg/m3] | mass density, 333.15 K [kg/m3] | speed of sound, 293.15 K [m/s] | speed of sound, 303.15 K [m/s] | speed of sound, 313.15 K [m/s] | speed of sound, 323.15 K [m/s] | speed of sound, 333.15 K [m/s]
100 kPa | 1630.2 | 1609.7 | 1588.6 | 1567.3 | 1545.6 | 673.7 | 643.7 | 616.7 | 588.4 | 561.4
10000 kPa | 1654 | 1635.5 | 1616.6 | 1597.6 | 1578.4 | – | – | – | – | –
20000 kPa | 1674.8 | 1657.8 | 1640.2 | 1622.7 | 1605.3 | 781.1 | 755.3 | 732.2 | 709.6 | 688.4
30000 kPa | 1693.3 | 1677.3 | 1660.7 | 1644.3 | 1628.1 | – | – | – | – | –
40000 kPa | 1709.8 | 1694.6 | 1678.9 | 1663.4 | 1648.2 | 865.8 | 842.8 | 822 | 802.1 | 783.3
50000 kPa | 1724.9 | 1710.4 | 1695.4 | 1680.6 | 1666.2 | – | – | – | – | –
60000 kPa | 1738.8 | 1724.9 | 1710.5 | 1696.4 | 1682.6 | 938.1 | 916.9 | 897.4 | 878.6 | 861.5
70000 kPa | 1751.7 | 1738.4 | 1724.6 | 1710.9 | 1697.7 | – | – | – | – | –
80000 kPa | 1763.9 | 1750.9 | 1737.1 | 1724.2 | 1711.6 | 1001.8 | 981.3 | 963 | 945.6 | 929.1
90000 kPa | 1775.4 | 1762.8 | 1749.7 | 1736.8 | 1724.6 | – | – | – | – | –
100000 kPa | 1786.2 | 1773.9 | 1761.2 | 1748.7 | 1736.9 | 1058 | 1038.5 | 1021.7 | 1004.9 | 989.3
110000 kPa | 1796.5 | 1784.5 | 1772.2 | 1760 | 1748.2 | – | – | – | – | –
120000 kPa | 1806.3 | 1794.5 | 1782.5 | 1770.6 | 1759.3 | – | – | – | – | –
130000 kPa | 1815.8 | 1804.2 | 1792.5 | 1780.7 | – | – | – | – | – | –
140000 kPa | 1824.9 | 1813.4 | 1802 | 1790.5 | – | – | – | – | – | –
